Here are results for one compound from publication PMC12498136, “Synthesis and biological evaluation of novel carnosic acid derivatives with anticancer activity” (RSC Advances, 2025).

Holding throughout (format): cell-based
For one test, the system named is Caco-2 cells. The test is described as follows: MTT cell viability assay in Caco-2 cells. The following applies: Homo sapiens, Caco-2, 72 h, read-out: IC50 Caco-2. As for the experimental part: (§1) The MTT assay was used to assess the effect of the compounds on cell viability. For this purpose, A375 (1500 cells per well), BJ (10 000 cells per well), Caco-2 (4000 cells per well), HCT116 (3000 cells per well), Mia Paca-2 (2000 cells per well), SW480 (6000 cells per well), and SW620 (8000 cells per well) cells were seeded in 96-well plates and incubated for 24 h. Subsequently, the culture medium was switched with a new medium containing DMSO (control) or the compound at a specified concentration. Following a 72 h incubation period, the supernatant was aspirated, and 100 μL of a mixture (1 : 1) of filtered MTT solution (1 mg per mL PBS) and FBS-free medium was added. The plates were then incubated for 1 h at 37 °C. After this time, the supernatant was aspirated, and the formazan crystals were dissolved in 100 μL of DMSO in each well. Relative cell viability was calculated by measuring absorbance at 570 nm using a Benchmark Plus Microplate Reader (Bio-Rad Laboratories, Hercules, CA, USA). Results are presented as the mean ± standard deviation (SD) of IC50 values, determined by nonlinear regression analysis of dose–response curves (log(inhibitor) vs. response with variable slope (four parameters)) using GraphPad Prism 9 software (GraphPad Software, San Diego, CA, USA).
On the technique in general: Tetrazolium assays rely on reduction of a dye to a coloured formazan, in cell work by metabolically active cells.

The test system of the next test is SW620 cells. The test is described as follows: MTT cell viability assay in SW620 cells. The note with it: Homo sapiens, SW-620, 72 h, read-out: IC50 SW620. As for the experimental part:
as §1

The test system of a further test is BJ cells. Kind of test: MTT cell viability assay in non-tumoral BJ fibroblasts. As to the method:
as §1

Test [1] concerns intracellular ROS levels in SW480 cells. The test is described as follows: Intracellular ROS quantification assay (H2DCFDA, flow cytometry). The following applies: SW480, 6.3 μM. As to the method:
Intracellular ROS levels can be quantified using lipophilic and non-fluorescent probes, such as 2′,7′-dichlorodihydrofluorescein diacetate (H2DCFDA).[60] To assess the effect of compound 17 on intracellular ROS levels, SW480 cells were treated with compound 17, followed by incubation with the H2DCFDA probe after 24, 48, and 72 h of treatment. After, the cells were subjected to flow cytometry to quantify the fluorescence intensity of 2′,7′-dichlorofluorescein (DCF), as shown in Fig. 9. […] Both effects of compound 17 contributed to the inhibition of SW480 cell growth.
SW480 cells were seeded at a density of 1.68 × 10^5 cells per well in 6-well plates and incubated at 37 °C for 24 h. The cells were then treated with compound 17 (IC50 value) for 24, 48, or 72 h. The adherent cells were trypsinized, washed with DPBS, collected by centrifugation, and resuspended in 1 mL of HBSS containing 50 μM H2DCFDA probe and 2 mM L-glutamine. After 45 min of incubation at 37 °C in a cell culture incubator, the cell suspensions were washed with 2 mL DPBS and collected by centrifugation. The cells were then stained with 350 μL of DPBS containing 20 μg per mL PI solution (1 mg mL^−1). Inside the cells, the H2DCFDA probe is deacetylated and undergoes oxidation in the presence of ROS, transforming into a DCF fluorescent compound. The fluorescence emitted by DCF from 1 × 10^4 PI-negative cells was measured at 520 nm using a Gallios flow cytometer (Beckman Coulter, Brea, CA, USA).
(In flow cytometry, cells or beads pass a laser one at a time.)

The test system of test [2] is SW480 cells. The test is described as follows: Cell proliferation assay and cell doubling time. The note with it: 6.3 μM, ln(2)/cell growth rate. An excerpt: Cell growth rates represent a characteristic of cell lines, indicating the rate at which the cell population size changes over time.[29] The commonly used metric for assessing the cell growth rate is the cell doubling time, which denotes the time required for a cell population to double in size. Cell doubling time can be estimated using the following formula: ln(2)/cell growth rate.[30] A time-dependent cell growth curve was constructed to elucidate the effect of compound 17 on the growth pattern of SW480 cells (Fig. 4). […] The cell concentration at each time point allowed us to determine the cell growth rate and subsequently calculate the cell doubling time. Compound 17 induced an increase in the doubling time of SW480 cells (69 h) compared to the control group (43 h). In summary, compound 17 affected the growth pattern of SW480 cells by increasing the cell doubling time, consequently decreasing the cell growth rate.
SW480 cells (1.68 × 10^5 cells per well) were seeded in 6-well plates and incubated at 37 °C for 24 h. The cells were then treated with compound 17 (IC50 value) for 24, 48 or 72 h. […] Cell viability was determined using the Invitrogen Countess 3 Automated Cell Counter (Thermo Fisher Scientific, Waltham, MA, USA). […]

The test system of test [3] is SW480 cells. Kind of test: MTT cell viability assay in SW480 cells. As for the experimental part:
as §1

A further test concerns Mia Paca-2 cells. Kind of test: MTT cell viability assay in Mia Paca-2 cells. The note with it: Homo sapiens, MIA PaCa-2, 72 h, read-out: IC50 Mia Paca-2. As to the method: as §1
Setting [4] is: SW480 cells, ratio of IC50 values.

A word on the IC50: it is the concentration that gives 50% inhibition. For `CC(=O)Oc1c(C(C)C)cc2c(c1OC(C)=O)[C@@]1(NC(=O)OCC(C)C)CCCC(C)(C)[C@@H]1CC2` [Compound 17, (4bR,8aS)-8,8-Dimethyl-4b-{[(2-methylpropoxy)carbonyl]amino}-2-(propan-2-yl)-4b,5,6,7,8,8a,9,10-octahydrophenanthrene-3,4-diyl diacetate], the IC50 with Caco-2 cells was 16 ± 2 µM; in the test with SW620 cells, 10 ± 1 µM; with BJ cells (Homo sapiens, BJ, MTT assay, 72 h incubation), more than 50 µM; with SW480 cells [3] (Homo sapiens, SW480, 72 h, read-out: IC50 SW480), 6.3 ± 0.5 µM; with Mia Paca-2 cells it was 7.5 ± 0.6 µM. Moreover, the “times less potent in BJ cells than in cancer cell lines (selectivity)” value in the test on BJ cells (BJ vs cancer cell lines) is 3–8 times. Besides, the figures for the “intracellular ROS levels relative to untreated cells” value in test [1] (24 h (control 100%)), in test [1] (48 h (control 100%)) and in test [1] (72 h (control 100%)) were 70%, 157% and 290%, respectively. The same compound gave a cell doubling time in the test with SW480 cells [2] of 69 h. Moreover, in the test on SW480 cells [3] (setting [4]), the “fold more active than cisplatin” value was determined as 2.4 fold. The “fold more potent than CA 1” value with SW480 cells [3] (setting [4]) is listed as 3.5 fold.
